Article PMC7617456, “Cryptosporidium lysyl-tRNA synthetase inhibitors define the interplay between solubility and permeability required to achieve efficacy” (Science translational medicine, 2024)

Columns and labels:
CHIlogD = format: physicochemical; conditions: pH 7.4
Calf tolerability study = format: in vivo; conditions: 15 mg/kg twice daily oral 7 days
Method: Calf efficacy and tolerability study
Calf tolerability study (Moredun Scientific)
A tolerability study was conducted on uninfected calves prior to efficacy studies to confirm palatability and tolerance. Starting at day 2 post birth (“Day 1”), DDD489 or DDD508 were administered to four male calves per treatment group. The test compound was dosed at 15 mg/kg (maximum volume of 20 ml per occasion; prepared in vehicle: 0.5% HPMC, 0.4% Tween 80, 0.5% Benzyl alcohol in sterile water) for a total of 7 days. Administration was by oral gavage twice daily immediately prior to milk feeds, and at least 8 hours apart (± 30 minutes). Body weight was measured on day 0 and day 7, and clinical observations were recorded twice a day during dosing. Blood samples were collected from all animals prior to the morning treatment on Day 1, then 5 (± 2) minutes, 15 (± 2) minutes, 30 (± 5) minutes, 1, 2, 4, 8 and 24 hours (± 10 minutes) post first daily dose. This sample schedule was repeated on Day 7 for the same animals. Blood samples were processed to plasma. […]

wild type C. parvum = assay: Neonatal calf efficacy model; format: in vivo; conditions: for calves receiving treatment that shed Cryptosporidium after day 16 PI: 15 mg/kg BID 7 days, n=7; for Cryptosporidium shedding: 15 mg/kg BID oral 7 days from day 1 PI, to day 16 PI; for fecal scores: 15 mg/kg BID, 0 = normal, 3 = severe, treatment period
Method: Calves were enrolled at birth and challenged with wild type C. parvum oocysts (Fig. 5A). DDD489 and DDD508 were administered orally at 15 mg/kg BID for 7 days, beginning on day 1 PI. Blood was sampled and mean free plasma concentration was determined (Fig. S10). Fecal samples were collected from individual animals and parasite shedding was quantified (oocyst/g) by microscopy and quantitative PCR. Fecal samples were collected daily until day 21 PI to monitor for parasite recrudescence. To determine the impact of our late lead compounds on reducing symptoms of cryptosporidiosis, several clinical observations were scored throughout the study.
Calves (Holstein Friesian, British Blue Cross, Limousin Cross, or Aberdeen Angus Cross) were born at commercial dairy farms, provided a colostrum feed, and transported to Moredun Scientific. Calves were enrolled in the study if >30 kg at birth and in good health. Enrolment was staggered due to timing of births.
Calves were assigned to control or treatment groups (7 calves per group) and housed in separate barns (within each barn calves were housed in adjacent, individual pens). Male calves were used in the DDD489 study, and both male and female calves were used in the DDD508 study (control group: 3 females/4 males; treatment group: 2 females/5 males). Calves were challenged on day 1 post birth with 5x10^5 C. parvum oocysts by oral gavage (Sterling Labs for DDD489; Waterborne Inc. for DDD508).
Starting day 1 PI, vehicle (in 0.5% HPMC, 0.4% Tween 80, 0.5% Benzyl alcohol in sterile water) or treatment (DDD489 or DDD508) were administered by oral gavage twice daily immediately prior to milk feeds, and at least 8 hours apart (± 30 minutes). Vehicle was delivered at a set volume (22.6 ml per occasion) and test compound at 15 mg/kg (maximum volume of 20 ml per occasion; prepared in vehicle). Blood samples were collected from all animals prior to morning treatment on Day 1, then 5 (± 2) minutes, 15 (± 2) minutes, 30 (± 5) minutes, 1, 2, 4, 8 and 24 hours (± 10 minutes) post first daily dose. This sample schedule was repeated on Day 7 for the same animals. Blood samples were processed to plasma. Weight was measured and clinical observations recorded as indicated. Fecal samples were collected daily throughout the study. […]
was limited to staff involved in the study, and separate PPE was dedicated for use with each […]
Specified staff were involved in preparing the vehicle and treatment material and were not involved in its administration. These staff were not involved in taking and recording clinical observations or collecting samples. Staff that administered the vehicle and treatment materials were blinded to the material identity. If staff involved in administration of materials or sample collection became “unblinded” at any point in the study, they were immediately removed from […]
Quantification of Cryptosporidium shedding from calf samples (Moredun Scientific and […]
Oocyst per gram from calf fecal samples was determined by microscopy (performed at MRI) and by qPCR (Pawlowic Lab at the University of Dundee). For microscopy 0.1 g of fecal material was resuspended in 10 ml PBS. 100 microliters of diluted fecal material was incubated with 15 microliters Cryptosporidium FITC Stain (CellLabs) and incubated at 37 °C for 15 minutes. Samples were then mounted on a grided slide and counted using a fluorescent microscope. For qPCR, fecal samples were continuously stored in 4°C and transported to the University of Dundee. DNA was extracted from 100mg of fecal material (unless otherwise noted) using the Zymo Quick-DNA Fecal/Soil Microbe Miniprep Kit (Cambridge Bioscience, catalog #D6010). Once material was suspended in Bashing Bead Buffer we modified the protocol slightly by adding 5 freeze/thaw cycles.(32) DNA was stored in 4°C to await qPCR.
For the standard curve, known amounts of wild-type oocysts were added to 100 mg of uninfected murine fecal sample and DNA was extracted using the protocol detailed above. We […]

CYP450 2C9 = CYP450 2C9 (Homo sapiens, UniProt P11712); assay: CYP450 inhibition 2C9; format: in vitro ADME
Chain of CYP450 2C9 (P11712 whole entry): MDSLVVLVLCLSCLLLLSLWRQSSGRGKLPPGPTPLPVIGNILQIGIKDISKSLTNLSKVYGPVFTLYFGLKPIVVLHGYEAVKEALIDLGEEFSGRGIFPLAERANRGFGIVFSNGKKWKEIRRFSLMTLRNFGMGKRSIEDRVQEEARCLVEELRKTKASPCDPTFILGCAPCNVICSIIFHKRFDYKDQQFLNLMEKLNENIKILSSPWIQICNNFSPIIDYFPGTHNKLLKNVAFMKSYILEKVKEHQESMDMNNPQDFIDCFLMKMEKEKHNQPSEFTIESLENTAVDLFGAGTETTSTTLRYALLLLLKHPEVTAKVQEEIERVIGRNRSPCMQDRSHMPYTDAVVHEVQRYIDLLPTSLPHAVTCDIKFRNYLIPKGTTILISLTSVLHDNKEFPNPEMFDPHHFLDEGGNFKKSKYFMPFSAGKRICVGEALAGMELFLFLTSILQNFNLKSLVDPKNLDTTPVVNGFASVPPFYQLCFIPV
Method: CYP450 inhibition (Dundee)
As previously described.(31)
DDD489 and DDD508 were evaluated for their ability to induce reverse mutations both in the presence and absence of S9 mix at the histidine locus in the genome of four strains of Salmonella typhimurium (TA98, TA100, TA1535, and TA97a) and at the tryptophan locus in the genome of Escherichia coli WP2 uvrA in a mini-Ames study conducted at WuXi App Tec […]
hERG inhibition (WuXi App Tec)
DDD489 and DDD508 were evaluated for their effects on cloned hERG potassium channels stably expressed in Chinese Hamster Ovary (CHO) cells using manual patch-clamp technique in a hERG inhibition assay conducted at WuXi App Tec (Suzhou).
Mitochondrial toxicity (Cyprotex)
DDD489 and DDD508 were evaluated for their effects on mitochondrial function in a functional mitochondrial toxicity assay using Seahorse XFe96 flux analyser conducted at […]
44 screen safety panel (Eurofins)
DDD489 was evaluated for off-target effects in a SafetyScreen44 panel at Eurofins Cerep.
All regulated procedures, at the University of Dundee, on living animals were carried out under the authority of a project license issued by the Home Office under the Animals (Scientific Procedures) Act 1986, as amended in 2012 (and in compliance with EU Directive EU/2010/63). […]

Nc1nc2c(c(C(F)(F)F)n1)C(=O)N(CC1CCCC(C(F)(F)F)C1)C2 (stereo not drawn) [DDD489]
chromatographic logD (CHIlogD): 2.8 | tolerability in uninfected calves (Calf tolerability study): well tolerated | calves receiving treatment that shed Cryptosporidium after day 16 PI (wild type C. parvum): 3/7 | Cryptosporidium shedding (wild type C. parvum): did not shed any detectable amount of Cryptosporidium | fecal scores (wild type C. parvum): normal to mild range | IC50 (CYP450 2C9): 32 µM

O=C(NCC1(O)CCCCC1)c1cc(=O)c2cc(O)ccc2o1 [DDD508]
chromatographic logD (CHIlogD): 1 | tolerability in uninfected calves (Calf tolerability study): well tolerated | calves receiving treatment that shed Cryptosporidium after day 16 PI (wild type C. parvum): 4/7 | Cryptosporidium shedding (wild type C. parvum): did not shed any detectable amount of Cryptosporidium | fecal scores (wild type C. parvum): normal to mild range | IC50 (CYP450 2C9): > 100 µM
